Assay results published in patent publication US20090196912A1, “Pyridinylamines” (GPC Botech AG, priority 2004, published 2009).

Columns and labels:
Assay in all cases: Generic kinase assay (33P-ATP, Myelin Basic Protein)
Format in all cases: biochemical
c-kit = c-kit (Homo sapiens, UniProt P10721); conditions: 1 h; class symbol: % inhibition at 10 μM or IC50; read-out: Inhibitory effect on target c-kit
Experimental: (§1) In order to determine the inhibitory effect of the compounds of the subject invention on various target enzymes a generic kinase assay was established.
(§2) Reactions were performed in 96-Well U-bottom microtiter plates (Greiner Bio-One; Frickenhausen/Germany, Cat. No. 650161), hereinafter designated “Assay Plates”. 10 μl of a solution comprising 40 μM Myelin Basic Protein (Invitrogen; Carlsbad, Calif./USA; Cat. No. 13228-010) and 4 μM ATP in three-fold concentrated Reaction Buffer (60 mM Tris-HCl, pH 7.5; 30 mM MgCl2; 3 mM dithiothreitol) were added into each well of the Assay Plate. 10 μl of serial dilutions of the compounds of the subject invention, dissolved in 4% DMSO, were then added into each well, except for Positive Control. Wells (C+ wells) and Negative Control Wells (C− wells). 10 μl of 4% DMSO without compounds were added to C+ and C− wells. 10 μl of a 500 mM solution of EDTA in water was then added to C− wells. Then 10 μl of a solution containing 50 μCi/ml Adenosine 5′-[γ-^33P]triphosphate in water was added to each well. To start the reaction 10 μl of the kinase to be assayed was added to each well. The optimal amount of kinase in the assay was determined to be the amount which yields to a turn-over of about 10% of ATP. Assay Plates were incubated for one hour at room temperature. Then 10 μl of a 500 mM solution of EDTA in water was added to each well except C− wells. Samples were now ready for measurement.
(§3) Measurements were preformed in 96-Well MAPH-Filter Plates (Millipore; Billerica, Mass./United States; Cat. No. MAPHNOB50), hereinafter designated “Measurement Plates”. Measurement Plates were washed with 200 μl of a 0.75% H3PO4 solution per well. The H3PO4 solution was exhausted using a Millipore vacuum station. 60 μl of a 0.75% H3PO4 solution was then added into each well, followed by the transfer of 30 μl of each well from the Assay Plate into the corresponding wells of the Measurement Plate. The Measurement Plate was incubated for 30 minutes at room temperature. Thereafter each well was washed three times with 200 μl of a 0.75% H3PO4 solution using a Millipore vacuum station. 20 μl of scintillation liquid (Supermix Liquid Szintillator; Perkin Elmer, Wellesley. Mass./United States; Cat. No. 1200-439) was then added to each well of the Measurement Plate. The plate was sealed and stored for 30 minutes in the darkness before radioactivity was quantified in a MicroBeta Scintillation Counter (Perkin Elmer, Wellesley. Mass./United States).

p56Lck = p56Lck (Homo sapiens, UniProt P06239); conditions: class symbol: % inhibition at 10 μM or IC50; for inhibition at 10 µM: 1 h, read-out: Inhibitory effect on target p56Lck
Sequence of p56Lck (P06239 whole entry, species assumed): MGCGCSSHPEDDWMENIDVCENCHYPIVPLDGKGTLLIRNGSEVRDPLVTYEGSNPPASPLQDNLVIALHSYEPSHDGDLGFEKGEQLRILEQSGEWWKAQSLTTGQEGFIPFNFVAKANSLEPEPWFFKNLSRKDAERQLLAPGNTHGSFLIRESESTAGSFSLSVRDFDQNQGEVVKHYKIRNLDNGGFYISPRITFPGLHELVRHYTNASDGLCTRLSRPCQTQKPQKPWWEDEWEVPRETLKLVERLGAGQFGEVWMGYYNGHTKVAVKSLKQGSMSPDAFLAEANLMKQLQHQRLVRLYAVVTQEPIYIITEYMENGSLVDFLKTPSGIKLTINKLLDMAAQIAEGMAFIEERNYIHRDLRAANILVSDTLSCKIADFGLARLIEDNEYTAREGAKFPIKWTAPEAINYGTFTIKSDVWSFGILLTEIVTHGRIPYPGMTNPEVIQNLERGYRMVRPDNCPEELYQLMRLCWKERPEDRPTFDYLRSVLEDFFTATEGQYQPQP
Experimental: as §1, §2, §3

PDGFR = conditions: class symbol: % inhibition at 10 μM or IC50
Experimental: as §1, §2, §3

Abl = Abl (Homo sapiens, UniProt P00519); conditions: 1 h; class symbol: % inhibition at 10 μM or IC50; read-out: Inhibitory effect on target Abl
Sequence of Abl (P00519 whole entry, species assumed): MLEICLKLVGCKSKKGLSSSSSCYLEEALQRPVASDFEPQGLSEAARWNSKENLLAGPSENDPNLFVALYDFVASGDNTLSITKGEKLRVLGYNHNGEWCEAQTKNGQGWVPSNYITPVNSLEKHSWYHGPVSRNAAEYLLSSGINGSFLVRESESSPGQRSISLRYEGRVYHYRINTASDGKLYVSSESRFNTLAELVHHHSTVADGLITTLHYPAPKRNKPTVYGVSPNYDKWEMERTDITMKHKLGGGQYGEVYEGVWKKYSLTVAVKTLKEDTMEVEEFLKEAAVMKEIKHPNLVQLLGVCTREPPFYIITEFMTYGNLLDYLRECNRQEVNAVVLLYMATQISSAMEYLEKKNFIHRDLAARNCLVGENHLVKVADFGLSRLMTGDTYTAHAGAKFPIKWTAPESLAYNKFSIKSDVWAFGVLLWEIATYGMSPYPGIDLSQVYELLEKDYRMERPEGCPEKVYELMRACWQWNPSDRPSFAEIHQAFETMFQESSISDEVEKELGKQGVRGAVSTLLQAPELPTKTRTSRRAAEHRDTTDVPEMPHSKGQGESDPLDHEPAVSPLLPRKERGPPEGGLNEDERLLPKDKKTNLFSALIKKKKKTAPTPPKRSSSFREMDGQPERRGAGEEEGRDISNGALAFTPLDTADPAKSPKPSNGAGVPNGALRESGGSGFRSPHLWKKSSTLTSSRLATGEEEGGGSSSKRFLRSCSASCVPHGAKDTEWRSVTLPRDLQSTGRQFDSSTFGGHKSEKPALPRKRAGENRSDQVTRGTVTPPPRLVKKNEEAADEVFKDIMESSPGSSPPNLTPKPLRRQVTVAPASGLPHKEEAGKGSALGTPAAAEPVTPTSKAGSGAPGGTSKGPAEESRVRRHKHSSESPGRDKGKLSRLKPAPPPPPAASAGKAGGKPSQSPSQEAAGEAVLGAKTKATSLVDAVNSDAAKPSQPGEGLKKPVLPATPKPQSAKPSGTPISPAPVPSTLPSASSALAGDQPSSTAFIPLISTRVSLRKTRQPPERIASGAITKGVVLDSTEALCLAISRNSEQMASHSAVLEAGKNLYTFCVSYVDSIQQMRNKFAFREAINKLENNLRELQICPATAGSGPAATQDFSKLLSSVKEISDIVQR
Experimental: as §1, §2, §3

RICK = RICK (Homo sapiens, UniProt O43353); conditions: class symbol: % inhibition at 10 μM or IC50
Sequence of RICK (O43353 whole entry, species assumed): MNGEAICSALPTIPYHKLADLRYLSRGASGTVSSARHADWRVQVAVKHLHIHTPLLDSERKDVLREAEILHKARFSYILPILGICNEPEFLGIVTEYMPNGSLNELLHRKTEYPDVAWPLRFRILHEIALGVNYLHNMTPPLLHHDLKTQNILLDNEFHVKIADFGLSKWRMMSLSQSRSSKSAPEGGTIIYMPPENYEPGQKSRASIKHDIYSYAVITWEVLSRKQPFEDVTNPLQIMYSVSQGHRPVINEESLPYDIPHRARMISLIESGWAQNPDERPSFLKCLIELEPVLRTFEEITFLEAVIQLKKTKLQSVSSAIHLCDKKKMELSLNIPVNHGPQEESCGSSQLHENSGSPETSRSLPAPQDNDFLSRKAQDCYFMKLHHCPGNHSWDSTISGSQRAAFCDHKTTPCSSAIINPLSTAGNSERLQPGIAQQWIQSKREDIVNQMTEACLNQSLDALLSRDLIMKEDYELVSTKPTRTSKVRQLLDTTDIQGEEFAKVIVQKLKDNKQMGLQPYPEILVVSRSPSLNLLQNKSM
Experimental: as §1, §2, §3

EGFR = EGFR (Homo sapiens, UniProt P00533); conditions: class symbol: % inhibition at 10 μM or IC50
Sequence of EGFR (P00533 25-1210, species assumed): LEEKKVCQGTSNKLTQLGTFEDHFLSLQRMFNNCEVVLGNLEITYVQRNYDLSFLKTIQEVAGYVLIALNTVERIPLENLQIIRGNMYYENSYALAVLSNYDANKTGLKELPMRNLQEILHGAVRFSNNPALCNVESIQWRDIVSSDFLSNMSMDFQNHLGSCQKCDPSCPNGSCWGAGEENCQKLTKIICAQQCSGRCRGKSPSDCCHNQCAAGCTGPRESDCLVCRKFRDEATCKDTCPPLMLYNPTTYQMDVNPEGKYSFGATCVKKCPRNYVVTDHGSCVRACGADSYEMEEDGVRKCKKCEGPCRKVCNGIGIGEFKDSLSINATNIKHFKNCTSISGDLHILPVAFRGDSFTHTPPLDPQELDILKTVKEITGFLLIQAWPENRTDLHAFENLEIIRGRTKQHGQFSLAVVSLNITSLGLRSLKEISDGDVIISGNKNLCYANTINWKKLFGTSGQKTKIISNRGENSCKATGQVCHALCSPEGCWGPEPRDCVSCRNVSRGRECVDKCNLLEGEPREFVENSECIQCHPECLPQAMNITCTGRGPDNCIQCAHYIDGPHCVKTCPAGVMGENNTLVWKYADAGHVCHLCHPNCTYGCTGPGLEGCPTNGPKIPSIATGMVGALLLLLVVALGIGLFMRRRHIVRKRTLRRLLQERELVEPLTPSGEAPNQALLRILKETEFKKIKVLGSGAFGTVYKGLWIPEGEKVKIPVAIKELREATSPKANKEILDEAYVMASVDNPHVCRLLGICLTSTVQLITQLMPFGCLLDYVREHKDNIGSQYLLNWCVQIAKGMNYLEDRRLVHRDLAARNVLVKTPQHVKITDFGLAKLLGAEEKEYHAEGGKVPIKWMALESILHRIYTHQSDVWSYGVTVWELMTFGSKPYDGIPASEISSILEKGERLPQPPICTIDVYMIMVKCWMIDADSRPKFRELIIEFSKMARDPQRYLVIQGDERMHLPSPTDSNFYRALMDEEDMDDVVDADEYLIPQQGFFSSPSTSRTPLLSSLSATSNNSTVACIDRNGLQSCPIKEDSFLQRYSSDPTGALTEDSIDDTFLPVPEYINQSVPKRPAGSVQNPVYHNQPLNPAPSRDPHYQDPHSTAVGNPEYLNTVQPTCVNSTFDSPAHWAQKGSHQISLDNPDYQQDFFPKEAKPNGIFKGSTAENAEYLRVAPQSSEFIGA
Experimental: as §1, §2, §3

cRaf = cRaf (Homo sapiens, UniProt P04049); conditions: class symbol: % inhibition at 10 μM or IC50; for inhibition at 10 µM: 1 h, read-out: Inhibitory effect on target cRaf
Sequence of cRaf (P04049 whole entry, species assumed): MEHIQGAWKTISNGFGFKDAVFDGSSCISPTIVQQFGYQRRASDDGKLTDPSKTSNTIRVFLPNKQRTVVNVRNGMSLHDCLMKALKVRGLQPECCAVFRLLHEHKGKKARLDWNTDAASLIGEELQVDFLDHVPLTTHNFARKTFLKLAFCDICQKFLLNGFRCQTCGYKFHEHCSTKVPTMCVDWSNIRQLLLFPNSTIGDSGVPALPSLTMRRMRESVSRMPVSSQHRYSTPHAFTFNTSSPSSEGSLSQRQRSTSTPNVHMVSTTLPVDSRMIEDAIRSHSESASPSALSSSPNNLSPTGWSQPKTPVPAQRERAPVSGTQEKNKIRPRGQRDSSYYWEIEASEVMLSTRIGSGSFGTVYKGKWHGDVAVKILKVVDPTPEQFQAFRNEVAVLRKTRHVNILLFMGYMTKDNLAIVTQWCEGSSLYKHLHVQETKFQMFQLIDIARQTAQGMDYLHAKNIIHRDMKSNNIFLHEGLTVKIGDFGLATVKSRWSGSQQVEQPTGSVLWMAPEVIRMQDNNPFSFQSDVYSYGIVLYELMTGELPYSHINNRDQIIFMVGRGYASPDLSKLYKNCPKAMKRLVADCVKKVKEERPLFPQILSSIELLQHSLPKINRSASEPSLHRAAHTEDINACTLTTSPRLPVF
Experimental: as §1, §2, §3

Sequence of c-kit (P10721 26-976): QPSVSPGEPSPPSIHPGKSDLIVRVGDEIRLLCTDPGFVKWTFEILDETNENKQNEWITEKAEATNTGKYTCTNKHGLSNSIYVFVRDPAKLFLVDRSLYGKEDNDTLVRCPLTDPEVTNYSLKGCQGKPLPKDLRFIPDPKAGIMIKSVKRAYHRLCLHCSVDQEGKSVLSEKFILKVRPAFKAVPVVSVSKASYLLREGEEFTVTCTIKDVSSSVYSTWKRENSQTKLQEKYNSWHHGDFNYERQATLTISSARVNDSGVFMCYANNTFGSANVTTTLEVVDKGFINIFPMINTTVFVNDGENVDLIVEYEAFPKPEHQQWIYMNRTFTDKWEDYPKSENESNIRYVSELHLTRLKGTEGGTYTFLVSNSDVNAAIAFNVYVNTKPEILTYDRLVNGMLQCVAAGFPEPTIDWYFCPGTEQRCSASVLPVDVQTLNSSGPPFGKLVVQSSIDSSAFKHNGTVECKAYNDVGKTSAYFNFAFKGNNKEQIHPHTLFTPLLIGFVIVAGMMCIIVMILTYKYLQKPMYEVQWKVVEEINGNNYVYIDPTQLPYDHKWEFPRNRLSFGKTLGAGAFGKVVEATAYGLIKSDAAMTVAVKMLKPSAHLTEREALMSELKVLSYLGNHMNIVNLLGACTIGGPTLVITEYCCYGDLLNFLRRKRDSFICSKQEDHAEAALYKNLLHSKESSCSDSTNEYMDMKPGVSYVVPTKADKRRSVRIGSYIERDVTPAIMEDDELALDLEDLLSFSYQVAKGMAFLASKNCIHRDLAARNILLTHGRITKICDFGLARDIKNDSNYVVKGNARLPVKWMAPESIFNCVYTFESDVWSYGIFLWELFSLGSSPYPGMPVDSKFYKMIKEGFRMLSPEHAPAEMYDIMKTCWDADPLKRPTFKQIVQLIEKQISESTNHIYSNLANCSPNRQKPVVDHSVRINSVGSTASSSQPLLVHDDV

inhibition at 10 µM (c-kit) [%]	inhibition at 10 µM (p56Lck) [%]	inhibition at 10 µM (Abl) [%]	Inhibitory effect on target RICK (RICK)	inhibition at 10 µM (cRaf) [%]	Structure (SMILES)	Inhibitory effect on target PDGFR (PDGFR)	Inhibitory effect on target EGFR (EGFR)	Inhibitory effect on target p56Lck (p56Lck)	Inhibitory effect on target cRaf (cRaf)
50 to 90	50 to 90	50 to 90	C (C: IC50 measured: <1 μM)	–	Oc1cccc(CNc2cncc(-c3cccnc3)c2)c1 [Compound 159, 3-([3,3′]Bipyridinyl-5-ylaminomethyl)-phenol]	A (A: 50-90% inhibition at 10 μM enzyme concentration)	A (A: 50-90% inhibition at 10 μM enzyme concentration)	–	–
50 to 90	–	–	C (C: IC50 measured: <1 μM)	–	CC(=O)Nc1cccc(-c2cncc(Nc3ccccc3)c2)c1 [Compound 194, N-[3-(5-Phenylamino-pyridin-3-yl)-phenyl]-acetamide]	A (A: 50-90% inhibition at 10 μM enzyme concentration)	–	–	–
50 to 90	50 to 90	–	C (C: IC50 measured: <1 μM)	50 to 90	Oc1cccc(CNc2cncc(-c3cncnc3)c2)c1 [Compound 195, 3-[(5-Pyrimidin-5-yl-pyridin-3-ylamino)-methyl]-phenol]	–	–	–	–
50 to 90	50 to 90	–	C (C: IC50 measured: <1 μM)	–	CS(=O)(=O)c1ccc(-c2cncc(NCc3cccc(O)c3)c2)cc1 [Compound 206, 3-{[5-(4-Methanesulfonyl-phenyl)-pyridin-3-ylamino]-methyl}-phenol]	–	–	–	–
> 90	50 to 90	50 to 90	C (C: IC50 measured: <1 μM)	50 to 90	OCc1cccc(-c2cncc(NCc3cccc(O)c3)c2)c1 [Compound 216, 3-{[5-(3-Hydroxymethyl-phenyl)-pyridin-3-ylamino]-methyl}-phenol]	A (A: 50-90% inhibition at 10 μM enzyme concentration)	A (A: 50-90% inhibition at 10 μM enzyme concentration)	–	–
> 90	> 90	50 to 90	C (C: IC50 measured: <1 μM)	–	O=C(NCCO)c1cccc(-c2cncc(NCc3cccc(O)c3)c2)c1 [Compound 217, 3-[5-(3-Hydroxy-benzylamino)-pyridin-3-yl]-N-(2-hydroxy-ethyl)-benzamide]	A (A: 50-90% inhibition at 10 μM enzyme concentration)	A (A: 50-90% inhibition at 10 μM enzyme concentration)	–	–
> 90	50 to 90	–	C (C: IC50 measured: <1 μM)	–	Oc1cccc(CNc2cncc(-c3ccc(N4CCOCC4)cc3)c2)c1 [Compound 218, 3-{[5-(4-Morpholin-4-yl-phenyl)-pyridin-3-ylamino]-methyl}-phenol]	A (A: 50-90% inhibition at 10 μM enzyme concentration)	A (A: 50-90% inhibition at 10 μM enzyme concentration)	–	–
50 to 90	50 to 90	50 to 90	C (C: IC50 measured: <1 μM)	–	COc1cncc(-c2cncc(NCc3cccc(O)c3)c2)c1 [Compound 222, 3-[(5′-Methoxy-[3,3′]bipyridinyl-5-ylamino)-methyl]-phenol]	A (A: 50-90% inhibition at 10 μM enzyme concentration)	–	–	–
> 90	50 to 90	50 to 90	C (C: IC50 measured: <1 μM)	50 to 90	COc1ccc(-c2cncc(NCc3cccc(O)c3)c2)cc1OC [Compound 223, 3-{[5-(3,4-Dimethoxy-phenyl)-pyridin-3-ylamino]-methyl}-phenol]	A (A: 50-90% inhibition at 10 μM enzyme concentration)	A (A: 50-90% inhibition at 10 μM enzyme concentration)	–	–
50 to 90	50 to 90	50 to 90	C (C: IC50 measured: <1 μM)	–	CN(C)CCNC(=O)c1cccc(-c2cncc(NCc3cccc(O)c3)c2)c1 [Compound 224, N-(2-Dimethylamino-ethyl)-3-[5-(3-hydroxy-benzylamino)-pyridin-3-yl]-benzamide]	A (A: 50-90% inhibition at 10 μM enzyme concentration)	A (A: 50-90% inhibition at 10 μM enzyme concentration)	–	–
> 90	50 to 90	50 to 90	C (C: IC50 measured: <1 μM)	–	CS(=O)(=O)Nc1cccc(-c2cncc(NCc3cccc(O)c3)c2)c1 [Compound 226, N-{3-[5-(3-Hydroxy-benzylamino)-pyridin-3-yl]-phenyl}-methanesulfonamide]	A (A: 50-90% inhibition at 10 μM enzyme concentration)	A (A: 50-90% inhibition at 10 μM enzyme concentration)	–	–
50 to 90	–	–	C (C: IC50 measured: <1 μM)	–	COc1ccc(Nc2cncc(-c3cccc(NC(C)=O)c3)c2)cc1 [Compound 227, N-{3-[5-(4-Methoxy-phenylamino)-pyridin-3-yl]-phenyl}-acetamide]	A (A: 50-90% inhibition at 10 μM enzyme concentration)	–	–	–
50 to 90	–	–	C (C: IC50 measured: <1 μM)	–	Oc1cccc(CNc2cncc(-c3ccsc3)c2)c1 [Compound 228, 3-[(5-Thiophen-3-yl-pyridin-3-ylamino)-methyl]-phenol]	A (A: 50-90% inhibition at 10 μM enzyme concentration)	–	–	–
> 90	> 90	> 90	C (C: IC50 measured: <1 μM)	50 to 90	Nc1cccc(-c2cncc(NCc3cccc(O)c3)c2)c1 [Compound 232, 3-{[5-(3-Amino-phenyl)-pyridin-3-ylamino]-methyl}-phenol]	A (A: 50-90% inhibition at 10 μM enzyme concentration)	A (A: 50-90% inhibition at 10 μM enzyme concentration)	–	–
50 to 90	50 to 90	50 to 90	C (C: IC50 measured: <1 μM)	–	Oc1cccc(CCNc2cncc(-c3cccc(O)c3)c2)c1 [Compound 244, 3-{5-[2-(3-Hydroxy-phenyl)-ethylamino]-pyridin-3-yl}-phenol]	A (A: 50-90% inhibition at 10 μM enzyme concentration)	B (B: >90% inhibition at 10 μM enzyme concentration)	–	–

Structure (SMILES)	inhibition at 10 µM (c-kit) [%]	inhibition at 10 µM (p56Lck) [%]	inhibition at 10 µM (Abl) [%]	Inhibitory effect on target RICK (RICK)	inhibition at 10 µM (cRaf) [%]	Inhibitory effect on target PDGFR (PDGFR)	Inhibitory effect on target EGFR (EGFR)	Inhibitory effect on target p56Lck (p56Lck)	Inhibitory effect on target cRaf (cRaf)
COc1ccc(-c2cncc(NCc3cccc(O)c3)c2)cn1 [Compound 207, S—K6′-Methoxy-fS.S′lbipyridinyl-δ-ylaminoJ-mθthyll-phenol]	–	–	–	C (C: IC50 measured: <1 μM)	–	–	–	A (A: 50-90% inhibition at 10 μM enzyme concentration)	–
COC(=O)c1cccc(CNc2cncc(-c3cccc(O)c3)c2)c1 [Compound 264, 3-{[5-(3-Hydroxy-phenyl)-pyridin-3-ylamino]mθthyl}-benzoic acid methyl ester]	–	–	–	A (A: 50-90% inhibition at 10 μM enzyme concentration)	–	A (A: 50-90% inhibition at 10 μM enzyme concentration)	A (A: 50-90% inhibition at 10 μM enzyme concentration)	A (A: 50-90% inhibition at 10 μM enzyme concentration)	A (A: 50-90% inhibition at 10 μM enzyme concentration)
